From patent publication US20140371165A1, “Identification of NSC23925 Isomers to Reverse Multidrug Resistance in Human Cancers” (priority 2012, published 2014)
Structures can show the parent of a compound that is named as a salt.

Columns and labels:
[1] = test system: SKOV-3TR xenograft tumors; test: SKOV-3TR xenograft tumor growth in nude mice
Method: The Crl:SHO-Prkdc^SCIDHr^hr nude female mice at approximately 3-4 weeks of age were purchased from The Charles River Laboratories (Ann Arbor, Mich.). Animal studies were carried out with protocols approved by the Massachusetts General Hospital Subcommittee on Research Animal Care (SRAC). To determine the effect of NSC23925b on paclitaxel sensitivity in xenograft model, 5×10^6 SKOV-3TR cells were injected subcutaneously with matrigel (BD Biosciences, San Jose, Calif.) on day one. Two weeks after injection, the mice were divided into four groups to start the treatments. Group one was received intraperitoneal (i.p) injection with normal saline, group two with paclitaxel (20 mg/kg), group three with NSC23925b (40 mg/kg). […] All four groups were treated twice a week for two weeks. The health of the mice and evidence of tumor growth were examined daily. Tumors were measured twice a week with a digital caliper. Tumor volume (mm^3) was calculated as (W^2×L)/2, where W is width and L is length. The curve of tumor growth was drawn according to tumor volume by using of GraphPad PRISM 4 software.
To further evaluate the effects of NSC23925b and paclitaxel combination therapy on the tumor growth of resistant cells, the growth of xenograft tumors were examined. A well-characterized ovarian cancer MDR cell line SKOV-3TR was chosen for in vivo studies. […] Tumors were measured twice a week with a digital caliper. Tumor volume (mm^3) was calculated as (W^2×L)/2, where W is width and L is length (FIG. 5A). Representative images of dissected tumor tissues from treated nude mice.

[2] = Solubility in organic solvents; assay type: physicochemical
[3] = test system: MCF-7/MX; test: MTT reversal of BCRP-mediated MDR in MCF-7/MX; assay type: cell-based, human; conditions: non-Pgp expressing drug resistant cell line
Source text: A panel of parental cancer cell line and their daughter resistant cell lines, displaying MDR phenotype were used in this study. Human ovarian cancer cell line SKOV-3, breast cancer cell line MCF-7 and colon cancer cell line SW480, the osteosarcoma cell line U-2OS, KHOS, uterine sarcoma cell line MESSA and its doxorubicin selected drug resistant cell line MESSA/Dx5, non-small cell lung cancer cell line H-69 and its doxorubicin selected drug resistant cell line H-69AR (overexpress MRP1) were obtained from the ATCC (Rockville, Md.). Dr. Efstathios Gonos (Institute of Biological Research & Biotechnology, Athens, Greece) provided the doxorubicin resistant U-2OS R2 (referred in the text below as U-2OSDR), KHOS R2 cell lines. Dr. Erasmus Schneider (Wadsworth Center, Albany) provided the mitoxantrane resistant breast cancer MCF-7/MX (overexpress BCRP) cell line. […]
To evaluate for reversal of Pgp-mediated MDR, SKOV-3TR, MCF-7adr and SW480TR cell lines were seeded into 96-well tissue culture plate at 2,000 cells per well with varying concentrations of chemotherapy drugs and NSC23925b for 6 days. […] Drug cytotoxicity was assessed in vitro using the MTT assay as previously described. Drugs at the concentrations utilized in the MTT assay were performed in the absence of cells to verify no change in absorbance. […]

[4] = test system: SW480TR; test: M30-Apoptosense ELISA apoptosis assay in SW480TR; assay type: cell-based, human; conditions: NSC23925b 1 μM with doxorubicin 0.5 μM, 72 hours
Method: Apoptosis was evaluated using the M30-Apoptosense ELISA assay kit (Peviva AB, Bromma, Sweden) according to the manufacturer's instructions. For the doxorubicin and NSC23925b treatment, MCF-7adr or SW480TR cells were seeded at 8,000 cells/per well in a 96-well plate for 24 hours before treatment. The cells were then treated with 0.5 μM of doxorubicin, 1 μM of NSC23925b, or a combination of the two drugs for an additional 72 hours. The cells were then lysed by an additional […] of 10% NP40 per well, following the manufacturer's instructions for apoptosis assay.
The effect of NSC23925b on the doxorubicin induction of apoptosis was assessed in MCF-7adr or SW480TR. cell lines. Cells were treated with either doxorubicin (0.5 μM) alone, NSC23925b (1 μM) alone, or a combination of doxorubicin and NSC23925b for 72 hours. Apoptosis was scored using the M30-Apoptosense ELISA assay.

## COc1ccc(-c2cc([C@H](O)[C@H]3CCCCN3)c3ccccc3n2)cc1 [NSC23925b, (2-(4-methoxyphenyl)quinolin-4-yl)(piperidin-2-yl)methanol hydrochloride]
[1]; NSC23925b 50 mg/kg with paclitaxel
  reversal of resistance to paclitaxel in xenograft model: almost completely reverse resistance to paclitaxel
[1]; NSC23925b administered alone
  toxicity on the basis of animal weight and mortality: no significant toxicity
[1]; NSC23925b combined with paclitaxel
  effect on paclitaxel-induced toxicity: reducing paclitaxel-induced toxicity in some animals
[1]; NSC23925b with paclitaxel (20 mg/kg) i.p. twice a week for two weeks
  inhibitory effect on tumor growth, combination versus single agents: significantly greater inhibitory effect
[1]; alone, i.p. twice a week for two weeks, paclitaxel 20 mg/kg or NSC23925b 40 mg/kg
  effect on paclitaxel resistant tumor cell growth, single agent: no significant effects
[2]; either, ethyl acetate, chloroform, dichloromethane, acetone, tetrahydrofuran, cyclohexane, cyclopentane, hexanes, pentane
  solubility in other solvents: not soluble
[2]; methanol
  solubility in methanol: soluble
[2]; volume of methanol for 5 milligram
  5 milligram solubility in methanol: 450 µL
[3]
  reversal of BCRP mediated drug resistance: unable to reverse drug resistance
[4]
  cell death / apoptosis, combination versus either drug alone: significantly greater cell death
